Assays:
Type in all cases: binding
[1] = target: kinases (KINOMEscan panel) (Homo sapiens, UniProt P53667); conditions: kinase LIMK1; NEW KINOMEscan
[2] = target: kinases (KINOMEscan panel) (Homo sapiens, UniProt P78368); conditions: kinase CSNK1G2; NEW KINOMEscan
[3] = target: kinases (KINOMEscan panel) (Homo sapiens, UniProt P11362); conditions: kinase FGFR1; NEW KINOMEscan
[4] = target: T1, kinases (KINOMEscan panel) (Homo sapiens, UniProt Q8WXR4); conditions: MYO3B; NEW KINOMEscan
T1 sequence (Q8WXR4 1-1341): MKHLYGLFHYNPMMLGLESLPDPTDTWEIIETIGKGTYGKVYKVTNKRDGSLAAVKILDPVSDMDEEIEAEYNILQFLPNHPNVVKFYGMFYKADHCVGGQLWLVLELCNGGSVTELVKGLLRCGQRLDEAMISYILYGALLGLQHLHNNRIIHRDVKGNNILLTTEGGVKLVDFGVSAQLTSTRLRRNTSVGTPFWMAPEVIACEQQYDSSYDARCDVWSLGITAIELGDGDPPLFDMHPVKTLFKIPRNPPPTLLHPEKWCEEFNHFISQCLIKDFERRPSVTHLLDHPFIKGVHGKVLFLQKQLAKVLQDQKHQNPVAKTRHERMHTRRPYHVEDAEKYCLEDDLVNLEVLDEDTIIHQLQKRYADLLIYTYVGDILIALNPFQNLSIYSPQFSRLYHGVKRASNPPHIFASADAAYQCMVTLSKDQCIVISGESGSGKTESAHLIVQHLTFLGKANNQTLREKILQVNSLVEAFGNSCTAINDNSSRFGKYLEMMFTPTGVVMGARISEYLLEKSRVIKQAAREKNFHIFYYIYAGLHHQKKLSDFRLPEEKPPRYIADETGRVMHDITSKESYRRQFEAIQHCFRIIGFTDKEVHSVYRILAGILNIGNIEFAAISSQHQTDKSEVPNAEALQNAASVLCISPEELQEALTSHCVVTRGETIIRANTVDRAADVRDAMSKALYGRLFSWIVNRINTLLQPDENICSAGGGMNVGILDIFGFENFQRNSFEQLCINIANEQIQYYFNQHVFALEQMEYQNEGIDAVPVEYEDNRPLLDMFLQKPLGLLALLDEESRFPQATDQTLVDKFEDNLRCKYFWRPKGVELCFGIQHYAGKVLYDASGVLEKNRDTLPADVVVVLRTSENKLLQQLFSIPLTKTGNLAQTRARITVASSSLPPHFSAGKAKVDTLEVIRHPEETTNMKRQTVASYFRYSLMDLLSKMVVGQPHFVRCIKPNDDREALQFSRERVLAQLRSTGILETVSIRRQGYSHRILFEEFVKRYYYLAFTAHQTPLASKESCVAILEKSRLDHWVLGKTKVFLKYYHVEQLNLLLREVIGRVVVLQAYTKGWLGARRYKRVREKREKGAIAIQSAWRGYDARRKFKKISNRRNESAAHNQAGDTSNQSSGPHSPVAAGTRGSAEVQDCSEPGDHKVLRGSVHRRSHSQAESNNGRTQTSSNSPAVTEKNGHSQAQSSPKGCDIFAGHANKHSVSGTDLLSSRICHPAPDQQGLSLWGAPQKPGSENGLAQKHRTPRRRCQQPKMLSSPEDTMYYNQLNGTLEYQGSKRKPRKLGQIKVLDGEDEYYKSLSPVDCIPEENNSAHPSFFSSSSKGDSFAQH

[5] = target: kinases (KINOMEscan panel) (Homo sapiens, UniProt P15056); conditions: BRAF; NEW KINOMEscan
[6] = target: T2, kinases (KINOMEscan panel) (Homo sapiens, UniProt Q16832); conditions: DDR2; NEW KINOMEscan
T2 sequence (Q16832 22-855): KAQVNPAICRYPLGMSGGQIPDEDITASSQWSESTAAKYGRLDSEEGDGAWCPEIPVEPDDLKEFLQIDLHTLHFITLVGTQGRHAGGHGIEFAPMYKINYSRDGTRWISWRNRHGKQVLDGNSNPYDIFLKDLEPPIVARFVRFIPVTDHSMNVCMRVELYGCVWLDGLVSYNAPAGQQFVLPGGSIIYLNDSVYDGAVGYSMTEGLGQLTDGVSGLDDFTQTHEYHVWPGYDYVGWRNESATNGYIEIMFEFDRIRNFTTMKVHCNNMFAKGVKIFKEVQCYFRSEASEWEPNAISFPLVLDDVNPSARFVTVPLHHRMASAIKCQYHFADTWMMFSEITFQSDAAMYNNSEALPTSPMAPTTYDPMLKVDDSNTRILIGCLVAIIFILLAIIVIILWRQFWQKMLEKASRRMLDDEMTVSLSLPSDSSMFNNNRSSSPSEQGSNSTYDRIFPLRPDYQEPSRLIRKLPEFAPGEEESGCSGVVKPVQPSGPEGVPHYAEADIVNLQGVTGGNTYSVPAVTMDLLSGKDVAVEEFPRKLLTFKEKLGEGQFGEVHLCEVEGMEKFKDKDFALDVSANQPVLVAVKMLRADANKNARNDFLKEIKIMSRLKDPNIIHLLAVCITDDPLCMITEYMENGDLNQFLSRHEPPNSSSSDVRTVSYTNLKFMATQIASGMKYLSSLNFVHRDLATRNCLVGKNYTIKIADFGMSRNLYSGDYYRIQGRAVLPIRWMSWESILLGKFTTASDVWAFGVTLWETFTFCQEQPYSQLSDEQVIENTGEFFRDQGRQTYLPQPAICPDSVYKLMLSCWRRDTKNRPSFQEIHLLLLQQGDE

[7] = target: kinases (KINOMEscan panel) (Homo sapiens, UniProt Q9Y6M4); conditions: CSNK1G3; NEW KINOMEscan
Sequence of kinases (KINOMEscan panel) (Homo sapiens, UniProt Q9Y6M4) (Q9Y6M4 whole entry): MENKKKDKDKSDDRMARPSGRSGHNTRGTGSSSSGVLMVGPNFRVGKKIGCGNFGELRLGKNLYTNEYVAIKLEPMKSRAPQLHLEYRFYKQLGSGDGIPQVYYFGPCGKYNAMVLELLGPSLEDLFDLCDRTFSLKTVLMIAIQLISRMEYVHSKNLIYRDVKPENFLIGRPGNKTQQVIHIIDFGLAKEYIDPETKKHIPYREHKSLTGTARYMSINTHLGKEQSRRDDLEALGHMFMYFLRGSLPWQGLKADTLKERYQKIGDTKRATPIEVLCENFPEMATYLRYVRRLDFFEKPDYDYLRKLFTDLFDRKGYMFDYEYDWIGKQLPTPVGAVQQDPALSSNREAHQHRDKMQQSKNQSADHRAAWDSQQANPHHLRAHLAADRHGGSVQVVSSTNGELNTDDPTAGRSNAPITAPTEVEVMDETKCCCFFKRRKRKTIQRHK

Sequence of kinases (KINOMEscan panel) (Homo sapiens, UniProt P11362) (P11362 22-822): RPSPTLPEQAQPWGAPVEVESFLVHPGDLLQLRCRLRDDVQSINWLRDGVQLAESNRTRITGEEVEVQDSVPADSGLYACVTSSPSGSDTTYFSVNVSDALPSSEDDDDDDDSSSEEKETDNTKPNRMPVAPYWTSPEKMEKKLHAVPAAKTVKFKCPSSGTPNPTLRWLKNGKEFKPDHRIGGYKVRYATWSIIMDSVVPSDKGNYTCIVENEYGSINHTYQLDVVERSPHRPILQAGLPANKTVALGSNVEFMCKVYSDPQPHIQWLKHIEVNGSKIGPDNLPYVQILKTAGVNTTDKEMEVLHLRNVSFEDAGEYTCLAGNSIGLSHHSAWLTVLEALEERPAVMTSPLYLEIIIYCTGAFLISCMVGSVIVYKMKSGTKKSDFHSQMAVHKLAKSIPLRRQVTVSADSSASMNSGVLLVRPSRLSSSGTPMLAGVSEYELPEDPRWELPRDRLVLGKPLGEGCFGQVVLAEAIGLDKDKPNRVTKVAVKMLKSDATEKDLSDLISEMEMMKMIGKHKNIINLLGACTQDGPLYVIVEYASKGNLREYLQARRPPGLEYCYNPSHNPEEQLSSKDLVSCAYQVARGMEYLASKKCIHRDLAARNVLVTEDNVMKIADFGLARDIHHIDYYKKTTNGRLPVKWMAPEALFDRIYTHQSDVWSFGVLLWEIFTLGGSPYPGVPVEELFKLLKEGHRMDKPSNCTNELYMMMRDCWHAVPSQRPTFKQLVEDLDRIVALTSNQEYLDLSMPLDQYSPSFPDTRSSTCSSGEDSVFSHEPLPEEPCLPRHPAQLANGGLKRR
Sequence of kinases (KINOMEscan panel) (Homo sapiens, UniProt P15056) (P15056 whole entry): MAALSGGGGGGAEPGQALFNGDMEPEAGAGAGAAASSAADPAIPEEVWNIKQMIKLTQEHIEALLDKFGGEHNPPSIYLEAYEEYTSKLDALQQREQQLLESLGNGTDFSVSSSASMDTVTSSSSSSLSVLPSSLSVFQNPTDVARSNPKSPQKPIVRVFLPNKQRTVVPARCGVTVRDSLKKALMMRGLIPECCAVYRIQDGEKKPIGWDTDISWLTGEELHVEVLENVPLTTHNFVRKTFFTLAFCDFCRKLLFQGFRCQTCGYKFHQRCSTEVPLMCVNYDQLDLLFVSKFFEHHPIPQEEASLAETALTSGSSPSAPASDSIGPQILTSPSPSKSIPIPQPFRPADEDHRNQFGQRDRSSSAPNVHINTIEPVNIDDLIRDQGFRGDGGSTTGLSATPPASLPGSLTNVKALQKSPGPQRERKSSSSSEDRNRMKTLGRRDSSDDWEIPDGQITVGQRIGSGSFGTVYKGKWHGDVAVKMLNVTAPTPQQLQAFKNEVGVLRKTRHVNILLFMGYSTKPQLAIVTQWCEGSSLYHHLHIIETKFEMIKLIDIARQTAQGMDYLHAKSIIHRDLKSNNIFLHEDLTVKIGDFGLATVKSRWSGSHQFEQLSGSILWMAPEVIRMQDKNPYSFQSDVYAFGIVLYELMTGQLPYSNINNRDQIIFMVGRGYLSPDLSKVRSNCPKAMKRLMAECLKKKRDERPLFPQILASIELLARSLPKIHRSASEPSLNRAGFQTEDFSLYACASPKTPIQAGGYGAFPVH
Sequence of kinases (KINOMEscan panel) (Homo sapiens, UniProt P53667) (P53667 whole entry): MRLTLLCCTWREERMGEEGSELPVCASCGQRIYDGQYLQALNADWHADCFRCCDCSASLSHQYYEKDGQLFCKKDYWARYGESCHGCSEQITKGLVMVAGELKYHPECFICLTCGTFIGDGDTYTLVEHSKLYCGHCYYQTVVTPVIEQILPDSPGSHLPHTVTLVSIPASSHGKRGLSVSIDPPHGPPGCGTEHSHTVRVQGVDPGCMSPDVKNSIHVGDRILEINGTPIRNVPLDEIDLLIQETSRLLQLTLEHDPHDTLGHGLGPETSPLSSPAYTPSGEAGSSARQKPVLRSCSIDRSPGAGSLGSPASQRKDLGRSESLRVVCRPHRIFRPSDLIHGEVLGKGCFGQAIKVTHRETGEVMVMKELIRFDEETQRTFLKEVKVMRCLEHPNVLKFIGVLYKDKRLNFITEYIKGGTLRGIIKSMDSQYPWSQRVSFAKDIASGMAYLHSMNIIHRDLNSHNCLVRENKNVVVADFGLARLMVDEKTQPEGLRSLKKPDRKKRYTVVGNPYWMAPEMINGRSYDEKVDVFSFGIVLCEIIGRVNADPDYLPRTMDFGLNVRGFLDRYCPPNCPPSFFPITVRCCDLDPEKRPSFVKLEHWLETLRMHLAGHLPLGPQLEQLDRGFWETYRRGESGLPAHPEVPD
Sequence of kinases (KINOMEscan panel) (Homo sapiens, UniProt P78368) (P78368 whole entry): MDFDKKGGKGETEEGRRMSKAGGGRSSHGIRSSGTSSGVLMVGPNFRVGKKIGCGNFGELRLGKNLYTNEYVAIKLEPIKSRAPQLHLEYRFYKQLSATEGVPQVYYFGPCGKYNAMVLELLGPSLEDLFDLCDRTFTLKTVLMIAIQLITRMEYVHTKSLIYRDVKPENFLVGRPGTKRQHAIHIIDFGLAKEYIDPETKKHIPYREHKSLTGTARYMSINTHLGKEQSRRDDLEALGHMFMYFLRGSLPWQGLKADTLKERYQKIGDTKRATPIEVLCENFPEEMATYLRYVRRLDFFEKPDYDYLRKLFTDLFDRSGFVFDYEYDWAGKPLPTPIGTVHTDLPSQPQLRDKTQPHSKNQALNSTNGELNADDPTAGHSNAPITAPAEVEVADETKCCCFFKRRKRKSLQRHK

Cc1cccc(-c2nc(Nc3ccc4nn(C)cc4c3)c3ccccc3n2)n1 [NK167]
KINOMEscan LIMK1 [1]: 0 | KINOMEscan CSNK1G2 [2]: 12 | KINOMEscan FGFR1 [3]: 15 | KINOMEscan MYO3B [4]: 0 | KINOMEscan BRAF [5]: 0 | KINOMEscan DDR2 [6]: 2 | KINOMEscan CSNK1G3 [7]: 0

Cc1cccc(-c2nc(N(C)c3ccc4ncsc4c3)c3ccccc3n2)n1 [NK-161]
KINOMEscan LIMK1 [1]: 0 | KINOMEscan CSNK1G2 [2]: 25 | KINOMEscan FGFR1 [3]: 10 | KINOMEscan MYO3B [4]: 1 | KINOMEscan BRAF [5]: 0 | KINOMEscan DDR2 [6]: 1 | KINOMEscan CSNK1G3 [7]: 0

— publication PMC9851200, “Multiparameter phenotypic screening for endogenous TFEB and TFE3 translocation identifies novel chemical series modulating lysosome function” (Autophagy, 2022)
